Measurements reported in ChEMBL document CHEMBL5113463, “Discovery and preclinical evaluations of JBD0131, a novel nitrodihydro-imidazooxazole anti-tuberculosis agent” (Bioorg Med Chem Lett, 2022).
Converted amounts (≈) assume the structure as drawn.

Tests used:
[1] = target: Cytochrome P450 2C9 (Homo sapiens, UniProt P11712); assay: Inhibition of CYP2C9 (unknown origin); assay type: ADME
[2] = Clearance in Sprague-Dawley rat at 1 mg/kg, iv; assay type: ADME, organism-based; conditions: in vivo
[3] = AUC (0-last) in CD-1 mouse at 5 mg/kg, po; assay type: ADME, organism-based; design: dose 5 mg/kg, route po; conditions: mouse, in vivo
[4] = target: T1, Cytochrome P450 1A2 (Homo sapiens, UniProt P05177); assay: Inhibition of CYP1A2 (unknown origin); assay type: ADME
T1 sequence (P05177 whole entry): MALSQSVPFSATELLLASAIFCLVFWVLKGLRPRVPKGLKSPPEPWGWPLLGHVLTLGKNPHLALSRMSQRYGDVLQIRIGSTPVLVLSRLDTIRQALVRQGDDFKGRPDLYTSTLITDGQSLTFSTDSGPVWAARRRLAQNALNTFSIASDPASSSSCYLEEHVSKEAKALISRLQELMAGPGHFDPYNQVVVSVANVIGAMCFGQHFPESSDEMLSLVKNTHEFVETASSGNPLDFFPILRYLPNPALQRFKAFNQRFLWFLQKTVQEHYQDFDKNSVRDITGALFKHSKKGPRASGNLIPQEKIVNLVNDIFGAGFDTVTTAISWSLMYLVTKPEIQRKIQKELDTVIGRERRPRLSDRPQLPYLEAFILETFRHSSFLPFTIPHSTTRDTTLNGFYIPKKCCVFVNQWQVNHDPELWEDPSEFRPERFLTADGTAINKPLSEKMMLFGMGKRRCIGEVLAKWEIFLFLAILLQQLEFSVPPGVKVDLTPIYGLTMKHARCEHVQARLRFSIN

[5] = target: T2, Cytochrome P450 2C8 (Homo sapiens, UniProt P10632); assay: Inhibition of CYP2C8 (unknown origin); assay type: ADME
T2 sequence (P10632 whole entry): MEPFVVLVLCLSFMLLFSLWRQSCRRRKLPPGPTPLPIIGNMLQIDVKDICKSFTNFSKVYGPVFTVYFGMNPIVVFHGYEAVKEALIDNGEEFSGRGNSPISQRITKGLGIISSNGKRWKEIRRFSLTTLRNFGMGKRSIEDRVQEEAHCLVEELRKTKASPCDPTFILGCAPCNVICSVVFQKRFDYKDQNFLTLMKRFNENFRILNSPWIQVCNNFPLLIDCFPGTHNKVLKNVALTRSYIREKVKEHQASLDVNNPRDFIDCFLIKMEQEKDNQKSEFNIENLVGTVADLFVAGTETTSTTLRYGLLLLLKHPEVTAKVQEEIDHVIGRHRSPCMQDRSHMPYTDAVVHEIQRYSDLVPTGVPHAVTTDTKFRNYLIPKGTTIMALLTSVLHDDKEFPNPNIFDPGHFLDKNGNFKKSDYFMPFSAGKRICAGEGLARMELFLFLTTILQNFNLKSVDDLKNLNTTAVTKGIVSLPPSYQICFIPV

[6] = AUC (0-last) in Beagle dog at 2 mg/kg, po; assay type: ADME, organism-based, Canis lupus familiaris; conditions: in vivo
[7] = target: Cytochrome P450 3A4 (Homo sapiens, UniProt P08684); assay: Inhibition of CYP3A4 (unknown origin); assay type: ADME
[8] = Metabolic stability in human liver microsomes assessed as half life; assay type: ADME, Microsome
[9] = Metabolic stability in mouse liver microsomes assessed as half life; assay type: ADME, Microsome
[10] = Aqueous solubility of compound at pH 2.0; assay type: physicochemical; conditions: buffer
[11] = Drug distribution in Sprague-Dawley rat liver at 10 mg/kg, po administered as C14-lableled compound and assessed as radioactivity; assay type: ADME, organism-based; conditions: in vivo
[12] = Cmax in Beagle dog at 2 mg/kg, po; assay type: ADME, organism-based, Canis lupus familiaris; design: dose 2 mg/kg, route po; conditions: in vivo
[13] = system: Mycobacterium tuberculosis; assay: Antimycobacterial activity against Mycobacterium tuberculosis H37Rv assessed as bacterial growth inhibition incubated for 7 days by MABA assay; assay type: functional; conditions: 168 h, time 7 day
[14] = Half life in CD-1 mouse at 0.6 mg/kg, iv; assay type: ADME, organism-based; conditions: in vivo
[15] = target: Voltage-gated inwardly rectifying potassium channel KCNH2 (Homo sapiens, UniProt Q12809); assay: Inhibition of human ERG; assay type: toxicity
[16] = target: Cytochrome P450 2D6 (Homo sapiens, UniProt P10635); assay: Inhibition of CYP2D6 (unknown origin); assay type: ADME
[17] = Drug distribution in Sprague-Dawley rat intestinal wall at 10 mg/kg, po administered as C14-lableled compound and assessed as radioactivity; assay type: ADME, organism-based, Intestine; conditions: in vivo
[18] = Plasma protein binding in mouse assessed as bound fraction; assay type: ADME, cell-free; conditions: read-out: PPB (converted)
[19] = Volume of distribution in CD-1 mouse at 0.6 mg/kg, iv; assay type: ADME, organism-based; conditions: in vivo
[20] = Cmax in CD-1 mouse at 5 mg/kg, po; assay type: ADME, organism-based; design: dose 5 mg/kg, route po; conditions: in vivo
[21] = system: Mycobacterium tuberculosis; assay: In vivo antimycobacterial activity against Mycobacterium tuberculosis Erdman infected mouse acute tuberculosis infection model assessed as reduction in log10 CFU at 10 mg/kg for 3 weeks at 5 days/week relative to control; assay type: functional
[22] = Efflux ratio of apparent permeability across basolateral to apical over apical to basolateral membrane in dog MDCK cells; assay type: ADME, cell-based, Canis lupus familiaris
[23] = Clearance in Beagle dog at 0.5 mg/kg, iv; assay type: ADME, organism-based, Canis lupus familiaris; conditions: in vivo
[24] = Plasma protein binding in dog assessed as bound fraction; assay type: ADME, cell-free, Canis lupus familiaris; conditions: read-out: PPB (converted)
[25] = Mutagenicity in Salmonella typhimurium by Ames test; assay type: toxicity; conditions: salmonella enterica subsp. enterica serovar typhimurium; route au
[26] = system: Mycobacterium tuberculosis; assay: In vivo antimycobacterial activity against Mycobacterium tuberculosis Erdman infected mouse chronic tuberculosis infection model assessed as reduction log10 CFU at 10 to 100 mg/kg for 4 weeks at 5 days/week administered after 31 days post infection relative to control; assay type: functional; conditions: dose 10-100 mg/kg
[27] = target: T3, Cytochrome P450 2B6 (Homo sapiens, UniProt P20813); assay: Inhibition of CYP2B6 (unknown origin); assay type: ADME
T3 sequence (P20813 whole entry): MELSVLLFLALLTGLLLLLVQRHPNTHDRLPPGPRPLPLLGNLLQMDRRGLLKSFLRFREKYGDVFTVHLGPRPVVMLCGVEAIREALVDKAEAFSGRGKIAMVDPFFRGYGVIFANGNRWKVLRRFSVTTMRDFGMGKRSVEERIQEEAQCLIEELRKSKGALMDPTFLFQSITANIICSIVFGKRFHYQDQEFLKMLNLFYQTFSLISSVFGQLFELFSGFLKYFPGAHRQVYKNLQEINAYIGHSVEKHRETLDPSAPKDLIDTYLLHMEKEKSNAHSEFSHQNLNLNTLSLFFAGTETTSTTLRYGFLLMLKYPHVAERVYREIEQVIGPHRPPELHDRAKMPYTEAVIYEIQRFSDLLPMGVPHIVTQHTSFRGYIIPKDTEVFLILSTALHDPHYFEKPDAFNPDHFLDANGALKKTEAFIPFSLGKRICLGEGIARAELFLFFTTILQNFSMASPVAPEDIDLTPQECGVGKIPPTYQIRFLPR

Chain of Cytochrome P450 2D6 (P10635 whole entry): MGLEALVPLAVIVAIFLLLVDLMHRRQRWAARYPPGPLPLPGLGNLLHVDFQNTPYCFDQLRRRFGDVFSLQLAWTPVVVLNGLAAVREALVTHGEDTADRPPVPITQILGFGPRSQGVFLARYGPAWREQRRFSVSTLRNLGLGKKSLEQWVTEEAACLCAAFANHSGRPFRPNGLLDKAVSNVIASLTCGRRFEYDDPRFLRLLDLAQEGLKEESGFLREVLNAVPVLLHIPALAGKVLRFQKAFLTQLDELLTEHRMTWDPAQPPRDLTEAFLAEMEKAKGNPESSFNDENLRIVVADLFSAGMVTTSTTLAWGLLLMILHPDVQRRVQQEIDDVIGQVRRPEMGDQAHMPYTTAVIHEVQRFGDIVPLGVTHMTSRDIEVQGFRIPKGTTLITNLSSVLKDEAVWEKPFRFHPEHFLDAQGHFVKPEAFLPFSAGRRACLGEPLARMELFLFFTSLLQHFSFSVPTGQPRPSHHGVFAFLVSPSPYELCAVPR
Chain of Cytochrome P450 2C9 (P11712 whole entry): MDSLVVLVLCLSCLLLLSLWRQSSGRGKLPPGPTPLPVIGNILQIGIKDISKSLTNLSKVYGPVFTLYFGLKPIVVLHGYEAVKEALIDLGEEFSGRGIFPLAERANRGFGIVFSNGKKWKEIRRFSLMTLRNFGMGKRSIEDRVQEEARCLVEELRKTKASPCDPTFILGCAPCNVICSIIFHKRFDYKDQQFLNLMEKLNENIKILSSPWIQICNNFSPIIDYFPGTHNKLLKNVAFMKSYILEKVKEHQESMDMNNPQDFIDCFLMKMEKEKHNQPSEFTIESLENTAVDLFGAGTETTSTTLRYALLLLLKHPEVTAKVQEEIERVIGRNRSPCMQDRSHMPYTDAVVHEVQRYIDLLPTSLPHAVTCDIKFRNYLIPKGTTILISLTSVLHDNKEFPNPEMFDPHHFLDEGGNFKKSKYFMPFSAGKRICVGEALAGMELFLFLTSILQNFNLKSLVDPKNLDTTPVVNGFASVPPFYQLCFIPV
Chain of Voltage-gated inwardly rectifying potassium channel KCNH2 (Q12809 whole entry): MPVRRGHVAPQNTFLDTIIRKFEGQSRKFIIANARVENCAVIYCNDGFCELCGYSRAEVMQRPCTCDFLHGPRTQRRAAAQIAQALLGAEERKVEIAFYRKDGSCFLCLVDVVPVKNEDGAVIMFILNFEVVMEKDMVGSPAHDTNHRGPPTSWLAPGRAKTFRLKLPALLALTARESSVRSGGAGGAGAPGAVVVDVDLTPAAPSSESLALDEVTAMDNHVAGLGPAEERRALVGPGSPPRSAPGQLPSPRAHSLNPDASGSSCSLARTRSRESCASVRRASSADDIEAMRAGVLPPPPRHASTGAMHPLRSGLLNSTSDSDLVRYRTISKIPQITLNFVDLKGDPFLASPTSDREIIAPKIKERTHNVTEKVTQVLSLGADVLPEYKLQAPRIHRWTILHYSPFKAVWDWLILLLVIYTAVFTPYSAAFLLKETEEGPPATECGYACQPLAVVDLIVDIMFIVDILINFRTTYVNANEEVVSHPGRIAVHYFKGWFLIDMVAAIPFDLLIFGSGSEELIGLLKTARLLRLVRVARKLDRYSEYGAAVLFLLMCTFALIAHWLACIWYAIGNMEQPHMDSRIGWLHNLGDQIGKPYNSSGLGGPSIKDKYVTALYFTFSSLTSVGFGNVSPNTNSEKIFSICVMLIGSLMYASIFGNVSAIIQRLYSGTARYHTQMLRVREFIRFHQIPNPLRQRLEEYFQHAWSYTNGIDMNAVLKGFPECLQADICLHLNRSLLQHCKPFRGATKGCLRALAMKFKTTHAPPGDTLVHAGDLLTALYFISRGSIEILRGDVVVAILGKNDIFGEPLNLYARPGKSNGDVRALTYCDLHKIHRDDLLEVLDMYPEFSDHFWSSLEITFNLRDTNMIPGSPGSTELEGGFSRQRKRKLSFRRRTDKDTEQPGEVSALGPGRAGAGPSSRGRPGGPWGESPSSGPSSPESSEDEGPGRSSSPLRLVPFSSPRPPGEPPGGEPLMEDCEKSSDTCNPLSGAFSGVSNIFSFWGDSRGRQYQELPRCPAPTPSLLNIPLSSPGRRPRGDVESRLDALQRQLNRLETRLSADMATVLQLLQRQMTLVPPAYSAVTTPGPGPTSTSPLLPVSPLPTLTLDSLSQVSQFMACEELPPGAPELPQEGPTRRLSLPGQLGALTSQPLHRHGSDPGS
Chain of Cytochrome P450 3A4 (P08684 whole entry): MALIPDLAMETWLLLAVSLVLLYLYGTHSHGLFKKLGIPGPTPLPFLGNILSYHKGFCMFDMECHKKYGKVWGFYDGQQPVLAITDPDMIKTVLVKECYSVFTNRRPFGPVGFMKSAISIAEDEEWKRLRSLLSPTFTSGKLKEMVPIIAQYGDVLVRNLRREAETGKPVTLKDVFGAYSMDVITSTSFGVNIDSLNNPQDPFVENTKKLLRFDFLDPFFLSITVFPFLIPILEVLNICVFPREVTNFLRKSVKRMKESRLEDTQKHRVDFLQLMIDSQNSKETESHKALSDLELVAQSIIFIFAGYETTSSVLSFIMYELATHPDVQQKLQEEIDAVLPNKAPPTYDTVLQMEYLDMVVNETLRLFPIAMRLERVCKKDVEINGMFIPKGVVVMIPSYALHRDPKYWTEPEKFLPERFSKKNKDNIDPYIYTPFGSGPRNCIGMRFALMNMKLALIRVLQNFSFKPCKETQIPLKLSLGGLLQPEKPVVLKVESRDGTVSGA

**Q.** Which IC50 [1] does the source give for `C[C@]1(CN2Cc3nc(-c4ccc(F)cc4)sc3C2)CN=C(N)O1` here?
**A.** > 100 µM

**Q.** What about the clearance [2] of the same compound?
**A.** 1.48 L/h/kg

**Q.** And the AUClast [3]?
**A.** 7.247 µg·h/mL

**Q.** What about the IC50 [4] of the same compound?
**A.** > 100 µM

**Q.** What about the IC50 [5] of the same compound?
**A.** > 100 µM

**Q.** What about the AUClast [6] of the same compound?
**A.** 1910 ng·h

**Q.** And the IC50 [7]?
**A.** > 100 µM

**Q.** What about the half-life [8] of the same compound?
**A.** 1.78 h

**Q.** What about the half-life [9] of the same compound?
**A.** 1.05 h

**Q.** And the solubility [10]?
**A.** 32.2 µM (≈ 10.7 µg/mL)

**Q.** And the Drug uptake [11]?
**A.** Active

**Q.** What about the Cmax [12] of the same compound?
**A.** 0.141 µM

**Q.** What about the MIC [13] of the same compound?
**A.** 0.035 mg/L (≈ 0.105 µM)

**Q.** What about the half-life [14] of the same compound?
**A.** 3.25 h

**Q.** And the IC50 [15]?
**A.** > 13.3 µM

**Q.** What about the IC50 [16] of the same compound?
**A.** 80.6 µM

**Q.** What about the Drug uptake [17] of the same compound?
**A.** Active

**Q.** What about the fraction unbound [18] of the same compound?
**A.** 0.018

**Q.** And the Vd [19]?
**A.** 2.69 L/kg

**Q.** And the Cmax [20]?
**A.** 0.753 µg/mL

**Q.** What about the Activity [21] of the same compound?
**A.** 4 log10CFU

**Q.** And the efflux ratio [22]?
**A.** 0.76

**Q.** What about the clearance [23] of the same compound?
**A.** 0.72 L/h/kg

**Q.** What about the fraction unbound [24] of the same compound?
**A.** 0.036

**Q.** What about the Activity [25] of the same compound?
**A.** Non-Toxic

**Q.** And the Activity [26]?
**A.** 1 log10CFU

**Q.** What about the IC50 [27] of the same compound?
**A.** > 100 µM
